This is an account of results in paper PMC10246721, “Cryo-EM structures for the Mycobacterium tuberculosis iron-loaded siderophore transporter IrtAB” (Protein & Cell, 2022).

For experiment [1], the target named is T1, IrtABΔSID (SID-truncated IrtAB) (Mycobacterium tuberculosis, UniProt P9WQJ7+P9WQJ9).
T1 construct: gene irtA

Experiment [2] concerns the target T1, IrtABΔSID (SID-truncated IrtAB). The source holds these as a separate data set.

Molecules are shown by their SMILES.

In the case of `Nc1ncnc2c1ncn2[C@@H]1O[C@H](COP(=O)(O)OP(=O)(O)O)[C@@H](O)[C@H]1O` [ADP], the cryo-EM structure entry in experiment [1] is “we also solved the structure of IrtABΔSID in complex with ADP”.

`Nc1ncnc2c1ncn2[C@@H]1O[C@H](COP(=O)(O)OP(=O)(O)OP(=O)(O)O)[C@@H](O)[C@H]1O` [ATP]: the “ATPase activity, phosphate release (MAK-113)” value in experiment [2] was “ATPase activity of IrtABΔSID is comparable to that of the wild-type (WT) protein”.
